Earlier results on one compound are cited in patent US20070218050A1, “Methods for treatment and prevention of otitis media using chemical penetration enhancers to facilitate transmembrane drug delivery into the middle ear” (Piedmont Pharmaceuticals LLC, priority 2005, published 2007).

For series [1] the following is noted: concentrations at or in excess of 50% v/v, applied to the middle ear; Vassalli et al. 1988.
For series [2] the following is noted: round window membrane of the inner ear and cochlea; Marsh and Tom 1989.

On to `CC(O)CO` (centres unmarked) [propylene glycol], for which the “Damage to the middle ear” value in series [1] was “produces inflammation-related damage to the middle ear”. Moreover, the Inner ear ototoxicity entry in series [2] is “implicated in inner ear ototoxicity”.
